Assay results reported in PubChem BioAssay (NCI).
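A five-concentration, 48-hour dose response in 96-well plates underlies each endpoint, interpolated linearly between surrounding concentrations. TGI: concentration producing complete growth inhibition.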

How the values were obtained:
Assay in all cases: NCI tumour cell line growth inhibition, 48 h
[1] = tested on: K-562 leukemia
[2] = tested on: EKVX NSCLC
[3] = tested on: MDA-MB-435
[4] = tested on: SK-MEL-2 melanoma
[5] = tested on: COLO 205 colon
[6] = tested on: HT29 colon
[7] = tested on: PC-3 prostate
[8] = tested on: TK-10 renal
[9] = tested on: SN12C renal
[10] = tested on: NCI/ADR-RES ovarian
[11] = tested on: SK-OV-3 ovarian
[12] = tested on: HCT-116 colon
[13] = tested on: SF-295 CNS
[14] = tested on: MALME-3M melanoma
[15] = tested on: MDA-N
[16] = tested on: SF-268 CNS
[17] = tested on: CAKI-1 renal
[18] = tested on: SK-MEL-28 melanoma
[19] = tested on: M14 melanoma
[20] = tested on: NCI-H460 lung
[21] = tested on: UO-31 renal
[22] = tested on: RPMI-8226 leukemia
[23] = tested on: SF-539 CNS
[24] = tested on: IGROV1 ovarian
[25] = tested on: NCI-H226 lung
[26] = tested on: NCI-H522 lung
[27] = tested on: DU-145 prostate
[28] = tested on: U251 CNS
[29] = tested on: LOX IMVI melanoma
[30] = tested on: MDA-MB-231 breast
[31] = tested on: HCT-15 colon
[32] = tested on: 786-0 renal
[33] = tested on: MCF7 breast
[34] = tested on: SNB-19 CNS
[35] = tested on: SK-MEL-5 melanoma
[36] = tested on: HOP-62 NSCLC
[37] = tested on: SNB-75 CNS
[38] = tested on: SR leukemia
[39] = tested on: HS 578T breast
[40] = tested on: RXF 393 renal
[41] = tested on: KM12 colon
[42] = tested on: OVCAR-5 ovarian
[43] = tested on: A549 NSCLC
[44] = tested on: OVCAR-3 ovarian
[45] = tested on: A498 renal
[46] = tested on: CCRF-CEM leukemia
[47] = tested on: NCI-H23 lung
[48] = tested on: OVCAR-4 ovarian
[49] = tested on: SW-620 colon
[50] = tested on: ACHN renal
[51] = tested on: UACC-257 melanoma
[52] = tested on: UACC-62 melanoma
[53] = tested on: HL-60(TB) leukemia
[54] = tested on: HCC-2998 colon
[55] = tested on: OVCAR-8 ovarian
[56] = tested on: MOLT-4 leukemia

CSc1nc(C)cc(N(C)c2ccccc2)n1
TGI [1]: > 100 µM | TGI [2]: > 100 µM | TGI [3]: 53 µM | TGI [4]: > 100 µM | TGI [5]: > 100 µM | TGI [6]: 49.5 µM | TGI [7]: > 100 µM | TGI [8]: 98.9 µM | TGI [9]: > 100 µM | TGI [10]: 63.6 µM | TGI [11]: > 100 µM | TGI [12]: > 100 µM | TGI [13]: > 100 µM | TGI [14]: > 100 µM | TGI [15]: 61.3 µM | TGI [16]: > 100 µM | TGI [17]: > 100 µM | TGI [18]: > 100 µM | TGI [19]: > 100 µM | TGI [20]: > 100 µM | TGI [21]: > 100 µM | TGI [22]: > 100 µM | TGI [23]: 66 µM | TGI [24]: > 100 µM | TGI [25]: 93.9 µM | TGI [26]: > 100 µM | TGI [27]: > 100 µM | TGI [28]: > 100 µM | TGI [29]: > 100 µM | TGI [30]: 87.3 µM | TGI [31]: > 100 µM | TGI [32]: > 100 µM | TGI [33]: 75.4 µM | TGI [34]: > 100 µM | TGI [35]: 56.2 µM | TGI [36]: > 100 µM | TGI [37]: 94.3 µM | TGI [38]: 60.7 µM | TGI [39]: 86.6 µM | TGI [40]: > 100 µM | TGI [41]: 20 µM | TGI [42]: > 100 µM | TGI [43]: > 100 µM | TGI [44]: 97.3 µM | TGI [45]: > 100 µM | TGI [46]: > 100 µM | TGI [47]: 95.3 µM | TGI [48]: > 100 µM | TGI [49]: > 100 µM | TGI [50]: > 100 µM | TGI [51]: 84 µM | TGI [52]: > 100 µM | TGI [53]: 61.9 µM | TGI [54]: > 100 µM | TGI [55]: 93 µM | TGI [56]: > 100 µM
